Measured values reported in ChEMBL document CHEMBL1146550, “Sesquiterpenoid derivatives from Gonospermum elegans and their cytotoxic activity for HL-60 human promyelocytic cells” (J Nat Prod, 2003).
Calls of active or inactive are those of the source. The rule behind the calls is not given here.

Columns and labels:
HL-60 [1] = assay: Antiproliferative activity against human HL60 cells after 24 hrs by MTT assay; format: functional, cell-based; conditions: for IC50: HL-60, 24 h
HL-60 [2] = assay: Induction of apoptosis in human HL60 cells assessed as apoptotic cells after 12 hrs by Hoechst staining-based fluorescence microscopy; format: functional, cell-based
HL-60 [3] = assay: Induction of apoptosis in human HL60 cells assessed as apoptotic cells at 1 uM after 12 hrs by Hoechst staining-based fluorescence microscopy; format: functional
HL-60 [4] = assay: Induction of apoptosis in human HL60 cells assessed as peripheral nuclear chromatin condensation at 0.1 to 3 uM after 12 hrs by Hoechst staining-based fluorescence microscopy; format: functional, cell-based
HL-60 [5] = assay: Induction of apoptosis in human HL60 cells assessed as PARP cleavage at 0.1 to 1 uM after 8 hrs by SDS-PAGE; format: functional, cell-based
HL-60 [6] = assay: Induction of apoptosis in human HL60 cells assessed as PARP cleavage at 0.1 to 1 uM after 12 hrs by SDS-PAGE; format: functional, cell-based
HL-60 [7] = assay: Induction of apoptosis in human HL60 cells assessed as […] DNA fragmentation at 1 uM after 12 hrs by agarose gel electrophoresis; format: functional, cell-based
HL-60 [8] = assay: Induction of apoptosis in human HL60 cells assessed as apoptotic cells at 10 uM after 12 hrs by Hoechst staining-based fluorescence microscopy; format: functional
HL-60 [9] = assay: Induction of apoptosis in human HL60 cells assessed as PARP cleavage at 1 to 10 uM after 8 hrs by SDS-PAGE; format: functional, cell-based
HL-60 [10] = assay: Induction of apoptosis in human HL60 cells assessed as PARP cleavage at 1 to 10 uM after 12 hrs by SDS-PAGE; format: functional, cell-based
HL-60 [11] = assay: Induction of apoptosis in human HL60 cells assessed as […] DNA fragmentation at 10 uM after 12 hrs by agarose gel electrophoresis; format: functional, cell-based

C=C1CC[C@H](OC(C)=O)/C(C)=C\[C@@H]2OC(=O)C(=C)[C@H]2[C@H](OC(C)=O)C1=O
Activity (HL-60 [1]): Dose-dependent effect
IC50 (HL-60 [1]): 0.25 µM
Activity (HL-60 [2]): Dose-dependent effect
Activity (HL-60 [3]): 25.9%
Activity (HL-60 [4]): Active
Activity (HL-60 [5]): Active
Activity (HL-60 [6]): Active
Activity (HL-60 [7]): Active

C=C1C(=O)O[C@H]2C[C@]3(C)[C@@H](OC(C)=O)CCC(=C)[C@@H]3[C@@H](OC(C)=O)[C@H]12
Activity (HL-60 [1]): Dose-dependent effect
IC50 (HL-60 [1]): 5.3 µM
Activity (HL-60 [2]): Dose-dependent effect
Activity (HL-60 [8]): 14.3%
Activity (HL-60 [9]): Active
Activity (HL-60 [10]): Active
Activity (HL-60 [11]): Active

C=C1C(=O)O[C@H]2C[C@@]3(C)[C@H](C(=C)CC[C@@H]3O)[C@@H](O)[C@H]12 [ELEGALACTONE A]
IC50 (HL-60 [1]): 55.1 µM
